Drawing on patent US5679671A, “Amino acid derivative” (Eisai Co., Ltd., priority 1993, dated 1997), this text covers IC50 for five compounds.

Common to all, as to type: biochemical
For test [1], the target named is T1, NEP (Rattus norvegicus, UniProt P07861).
T1 sequence (P07861 1-750): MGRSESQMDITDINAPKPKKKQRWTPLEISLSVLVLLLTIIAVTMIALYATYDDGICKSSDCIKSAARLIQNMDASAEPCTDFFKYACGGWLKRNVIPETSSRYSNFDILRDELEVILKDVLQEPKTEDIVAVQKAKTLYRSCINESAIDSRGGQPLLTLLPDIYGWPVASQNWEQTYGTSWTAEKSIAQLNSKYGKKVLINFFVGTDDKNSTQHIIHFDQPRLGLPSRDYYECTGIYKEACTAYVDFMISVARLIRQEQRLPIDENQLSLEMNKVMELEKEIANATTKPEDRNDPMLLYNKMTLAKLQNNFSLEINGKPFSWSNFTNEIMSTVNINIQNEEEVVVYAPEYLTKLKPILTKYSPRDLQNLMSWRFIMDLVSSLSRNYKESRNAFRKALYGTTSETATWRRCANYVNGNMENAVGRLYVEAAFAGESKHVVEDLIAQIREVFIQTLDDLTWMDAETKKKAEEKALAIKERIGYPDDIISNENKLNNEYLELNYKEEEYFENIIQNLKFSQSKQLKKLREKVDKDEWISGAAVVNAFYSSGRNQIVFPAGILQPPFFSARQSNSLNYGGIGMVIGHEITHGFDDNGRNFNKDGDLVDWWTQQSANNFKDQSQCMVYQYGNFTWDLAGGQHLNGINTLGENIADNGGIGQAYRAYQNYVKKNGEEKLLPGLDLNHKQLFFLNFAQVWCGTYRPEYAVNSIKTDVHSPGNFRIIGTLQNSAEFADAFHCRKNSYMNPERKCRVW
The test is described as follows: NEP inhibition activity using rat renal cortex (Experiment A-1). Further details: membrane fraction prepared from rat renal cortex; from tissue; host or cells: rat renal cortex, membrane fraction (method of Booth and Kenny). The conditions noted are these: rat renal cortex membrane fraction. As to the method: The NEP activity was determined by using a membrane fraction prepared from rat renal cortex in accordance with the method of Booth and Kenny (A Rapid Metod for the Purificaton of Microvilli from Rabbit Kidney., Andrew G. Booth and A. John Kenny, Biochem j., 1974, 142, […].).
The NEP activity was determined by the following manner in accordance with the method of Orlowsky and Wilk (Purification and Specificity of a Membrane-Bound Metalloendopeptidase from Bovine Pituitaries., Marian Orlowsky and Shrwin Wilk, Biochemistry, 1981, 20, 4942-4950.).
(§1) As a substrate, benzoyl-glycyl-arginyl-arginyl-2-naphthylamide (benzoyl-Gly-Arg-Arg-2-naphthylamide (Nova Biochem, Switzerland)) was used. In the presence of an NEP enzyme preparation and excessive leucine aminopeptidase (sigma chemical Co., U.S.A.), the liberated naphthylamine was made to undergo color development with first garnet (Sigma chemical Co., U.S.A.), followed by the measurement of the absorbance at a wavelength of 540 nm.
With respect to the NEP inhibition activity, the inhibitor was added to the experimental system as described above in such a manner as to give the final concentrations of 1, 3, 10, 30, 100, 300 and 1000 nM, an inhibition curve was prepared, and then the concentration at which 50% inhibition was achieved was taken as IC50.

Test [2] has as its target T2, ACE (Rattus norvegicus, UniProt P47820).
T2 construct: membrane fraction prepared from rat lung; from tissue; host or cells: rat lung, membrane fraction (method of Wu-Wong et al.)
T2 sequence (P47820 36-1313): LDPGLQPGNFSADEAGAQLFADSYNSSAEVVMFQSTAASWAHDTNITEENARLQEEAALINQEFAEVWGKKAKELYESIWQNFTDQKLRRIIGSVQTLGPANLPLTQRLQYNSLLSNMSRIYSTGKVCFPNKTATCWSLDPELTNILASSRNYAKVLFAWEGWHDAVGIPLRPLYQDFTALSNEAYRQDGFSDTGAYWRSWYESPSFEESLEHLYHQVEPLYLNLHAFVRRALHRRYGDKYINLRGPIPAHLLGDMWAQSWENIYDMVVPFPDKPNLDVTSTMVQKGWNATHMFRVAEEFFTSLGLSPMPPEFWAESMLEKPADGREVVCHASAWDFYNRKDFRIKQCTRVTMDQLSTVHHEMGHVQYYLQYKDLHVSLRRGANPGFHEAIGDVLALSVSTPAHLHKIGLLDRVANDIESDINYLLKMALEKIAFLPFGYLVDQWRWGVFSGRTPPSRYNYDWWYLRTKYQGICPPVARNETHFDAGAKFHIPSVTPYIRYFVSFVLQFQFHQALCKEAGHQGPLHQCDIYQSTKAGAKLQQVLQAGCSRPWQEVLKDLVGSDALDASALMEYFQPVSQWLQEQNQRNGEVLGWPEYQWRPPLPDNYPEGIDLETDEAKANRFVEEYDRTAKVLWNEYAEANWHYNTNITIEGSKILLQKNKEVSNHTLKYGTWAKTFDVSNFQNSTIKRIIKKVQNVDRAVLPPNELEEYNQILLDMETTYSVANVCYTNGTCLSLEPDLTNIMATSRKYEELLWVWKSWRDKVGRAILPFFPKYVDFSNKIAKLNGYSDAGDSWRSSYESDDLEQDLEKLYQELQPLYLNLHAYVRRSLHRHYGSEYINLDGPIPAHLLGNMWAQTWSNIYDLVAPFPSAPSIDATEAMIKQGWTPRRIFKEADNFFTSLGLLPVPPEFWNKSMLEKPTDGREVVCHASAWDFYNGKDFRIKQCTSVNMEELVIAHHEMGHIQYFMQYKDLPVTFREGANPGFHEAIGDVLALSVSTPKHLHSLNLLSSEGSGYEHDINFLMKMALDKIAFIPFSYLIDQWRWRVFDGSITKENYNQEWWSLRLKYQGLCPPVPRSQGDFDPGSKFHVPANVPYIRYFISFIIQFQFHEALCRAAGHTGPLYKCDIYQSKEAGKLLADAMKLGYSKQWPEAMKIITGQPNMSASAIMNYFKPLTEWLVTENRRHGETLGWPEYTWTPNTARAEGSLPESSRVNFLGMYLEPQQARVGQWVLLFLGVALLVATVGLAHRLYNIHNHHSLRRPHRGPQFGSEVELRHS
In words: ACE inhibition activity using rat lung (Experiment A-2). The conditions noted are these: rat lung membrane fraction, borate buffer pH 8.3. As to the method:
The ACE inhibition activity was determined by using a membrane fraction prepared from rat lung in accordance with the method of Wu-Wong et al. (Characterization of Endthelin Converting Enzyme in Rat Lung., Junshyum R. Wu-Wong, Gerald, P. Budzik, Edward M. Devine and Terry J. Opgenorth, Biochem. Biophys. Res. Commun., 1990, 171, 1291-1296.).
The ACE activity was determined with the use of a modification (modified to a borate buffer, pH 8.3) of the method of Cushman and Cheung (Spectrophotometric Assay and Properties of the Angiotensin-Converting Enzyme of Rabbit Lung., Cushman, D. W. and Cheung H. S., 1971, 20, 1637-1648.).
(§2) In the presence of ACE, the hippurate liberated from hippuryl-histidyl-leucine (Hippuryl-His-Leu (PeptideInstitute Inc., Japan)) was extracted with ethyl acetate and then the absorbance was measured at a wavelength of 228 nm.
With respect to the ACE inhibition activity, the inhibitor was added to the experimental system as described above in such a manner as to give the final concentrations of 1, 3, 10, 30, 100, 300 and 1000 nM, an inhibition curve was prepared, and then the concentration at which 50% inhibition was achieved was taken as IC50.

The target in test [3] is T2, ACE. The test is described as follows: ACE inhibition activity (Experiment E-1). The conditions noted are these: rat lung membrane fraction, pH 8.3. As to the method:
As a source of the enzyme ACE, a membrane fraction prepared from rat lung in accordance with the method of Wu-Wong et al. (Characterization of Endthelin Converting Enzyme in Rat Lung., Jinshyum R. Wu-Wong, Gerald, P. Budzik, Edward M. Devine and Terry J. Opgenorth, Biochem. Biophys. Res. Commun., 1990, 171, 1291-1296.) was used. The ACE activity was determined with the use of a modification (modified to a borate buffer pH 8.3) of the method of Cushman and Cheung (Spectrophotometric Assay and Properties of the Angiotensin-Converting Enzyme of Rabbit Lung., Cushman D. W. and Cheung H. S., 1971, 20, 1637-1648.). Now the procedure will be briefly described.
as §2
(§3) To determine the NEP inhibition activity and the ACE inhibition activity, the inhibitor was added to the assay systems of both enzyme activities as described above in such a manner as to give the final concentrations of 1, 3, 10, 30, 100, […] and 1000 nM and inhibition curves were prepared. Then the concentration at which 50% inhibition was achieved was taken as IC50.

For test [4], the target named is T1, NEP. In words: NEP inhibition activity (Experiment E-1). On the set-up: membrane fraction prepared from rat renal cortex; from tissue; host or cells: rat renal cortex, membrane fraction (method of Booth and Kenny). The conditions noted are these: rat renal cortex membrane fraction. As to the method:
As a source of the enzyme NEP, a membrane fraction prepared from rat renal cortex in accordance with the method of Booth and Kenny (A Rapid Method for the Purification of Microvilli from Rabbit Kidney., Andrew G. Booth and A. John Kenny, Biochem. j., 1974, 142,575-581.) was employed. The NEP activity was determined in accordance with the method of Orlowsky and Wilk (Purification and Specificity of a Membrane-Bound Metalloendpeptidase from Bovine Pituitaries., Marian Orlowsky and Shrwin Wilk, Biochemistry, 1981, 20, 4942-4950.). Now the procedure will be briefly described.
As a substrate, benzoyl-glycyl-arginyl-arginyl-2-naphthylamide (benzoyl-Gly-Arg-Arg-2 naphthylamide (Nova Biochem, Switzerland)) was used. In the presence of an NEP enzyme preparation and excessive leucine aminopeptidase (sigma chemical Co., U.S.A.), the liberated naphthylamine was made to undergo color development with first garnet (Sigma chemical Co., U.S.A.), followed by the measurement of the absorbance at a wavelength of 540 nm.
as §3

Test [5] addresses T1, NEP. In words: NEP inhibition activity (Experiment C-1). Conditions: Table C-1. As to the method:
The NEP activity was determined by the following manner in accordance with the method of Orlowsky and Wilk (Purification and Specificity of a Membrane-Bound Metalloendpeptidase from Bovine Pituitaries., Marian Orlowsky and Shrwin Wilk, Biochemistry, 1981, 20, 4942-4950.).
as §1
With respect to the NEP inhibition activity, the test compound was added to the experimental system as described above in such a manner as to give the final concentrations of 1, 3, 10, 30, 100, 300 and 1000 nM, an inhibition curve was prepared, and then the concentration at which 50% inhibition was achieved was taken as IC50. As a comparative compound, [4S-[4α,7α(R*),12bβ]]-7-[(1-oxo-2-(S)-thio-3-phenyl-propyl)amino]-1,2,3,4,6,7,8,12b-octahydro-6-oxopyrido-[2,1-a][2]benzazepine-4-carboxylic acid was used.

The target in test [6] is T2, ACE. The test is described as follows: ACE inhibition activity using rat lung (Experiment C-2). The conditions noted are these: Table C-1; rat lung membrane fraction, borate buffer pH 8.3. On the procedure: The ACE inhibition activity was determined by using a membrane fraction prepared from rat lung in accordance with the method of Wu-Wong et al. (Characterization of Endthelin Converting Enzyme in Rat Lung., Junshyum R. Wu-Wong, Gerald P. Budzik, Edward M. Devine and Terry J. Opgenorth, Biochem. Biophys. Res. Commun., 1990, 171, 1291-1296.).
The ACE activity was determined with the use of a modification (modified to a borate buffer, pH 8.3) of the method of Cushman and Cheung (Spectrophotometric Assay and Properties of the Angiotensin-Converting Enzyme of Rabbit Lung., Cushman D. W. and Cheung H. S., 1971, 20, 1637-1648.).
as §2
With respect to the ACE inhibition activity, the test compound was added to the reaction system as described above in such a manner as to give the final concentrations of 1, 3, 10, 30, 100, 300 and 1000 nM, an inhibition curve was prepared, and then the concentration at which 50% inhibition was achieved was taken as IC50. As a comparative compound, [4S-[4α,7α(R*),12bβ]]-7-[(1-oxo-2-(S)-thio-3-phenyl-propyl)amino]-1,2,3,4,6,7,8,12b-octahydro-6-oxopyrido-[2,1-a][2]benzazepine-4-carboxylic acid was used.

As usually defined, the IC50 is the point on the concentration scale where inhibition reaches its midpoint. A lower IC50 goes with higher potency.

As for `O=C(O)CN1C(=O)C(NC(=O)[C@@H](S)Cc2ccccc2)CCc2ccccc21` (stereo partly drawn) [Example A-7, 1-Carboxymethyl-3-[(S)-2-mercapto-3-phenylpropionylamino]1H-[1]benzazepin-2-one], the 50% inhibitory concentration (IC50) on NEP [1] came out at 8.2 nM; at ACE [2], 10 nM.
As to `CC(C)[C@H](S)C(=O)NC1CCc2ccc(-c3ccccc3)cc2N(CC(=O)O)C1=O` (stereo partly shown) [Example A-5], the 50% inhibitory concentration (IC50) against NEP [1] amounted to 160 nM; on ACE [2], 50 nM.
As for `COc1ccc(C[C@H](S)C(=O)N[C@H]2Cc3ccc(-c4ccccc4)cc3[C@H]3CCC[C@@H](C(=O)O)N3C2=O)cc1` [Example E-7, [4S-[4α,7α(R*),12bβ]]-7-[(S)-2-Mercapto-3-(4-methoxyphenyl)propionylamino]-6-oxo-11-phenyl-1,2,3,4,6,7,8,12b-octahydropyrido[2.1-a][2]benzazepine-4-carboxylic acid], the IC50 against ACE [3] was found to be 11 nM; against NEP [4], 45 nM.
With `CC[C@H](C)[C@H](S)C(=O)N[C@H]1Cc2ccc(NS(C)(=O)=O)cc2[C@H]2CCC[C@@H](C(=O)O)N2C1=O` [Example C-15, [4S-[4α,7α(R*),12bβ]]-11-Methylsulfonylamino-7-[[(2S,3S)-3-methyl-1-oxo-2-thiopentyl]amino]-6-oxo-1,2,3,4,6,7,8,12b-octahydropyrido[2,1-a][2]benzazepine-4-carboxylic acid], the IC50 worked out at 6.6 nM against NEP [5] and 12.5 nM at ACE [6].
For the compound `O=C(O)CN1C(=O)C(NC(=O)[C@@H](S)Cc2ccccc2)CCc2ccc(-c3ccccc3)cc21` (stereo partly drawn) [Example A-3, 1-Carboxymethyl-3-[(S)-2-mercapto-3-phenylpropionylamino]-8-phenyl-1H-[1]benzazepin-2-one], the values for the IC50 at NEP [1] and on ACE [2] were 90 nM and 50 nM, respectively.
